Article PMC6494879, “Drug resistance emergence in macaques administered cabotegravir long-acting for pre-exposure prophylaxis during acute SHIV infection” (Nature Communications, 2019)
Where two headings read alike, the source gives them in different places.

Columns and labels:
[1] = system: SIV integrase E92Q/G140R (SIV IN RTV pseudovirus); format: cell-based; conditions: E92Q/G140R SIV integrase mutant
[2] = for Median CAB: plasma, median of treated macaques
Description: CAB LA (200 mg/mL injectable stock aqueous suspension) was given at a dose of 50 mg kg^−1 under anesthesia by intramuscular injection into the quadriceps. Volumes greater than 1.0 mL were divided into two injection sites.

C[C@H]1CO[C@@H]2Cn3cc(C(=O)NCc4ccc(F)cc4F)c(=O)c(O)c3C(=O)N12 [CAB, cabotegravir]
fold-change relative to wild type integrase [1]: > 840 fold | time after which plasma CAB was below the limit of detection of the assay ([2]; four of the six animals): 115 to 176 days | Plasma CAB concentration ([2]; macaque 01D520, day 18): 11.2 µg/mL | Plasma CAB concentration ([2]; macaque 01D520, day 25): 7.1 µg/mL | Plasma CAB concentration ([2]; macaque 01D520, day 32): 2.24 µg/mL | Plasma CAB concentration ([2]; macaque 01D520, day 39): 0.239 µg/mL | Plasma CAB concentration ([2]; macaque 01D520, day 46): 6.87 µg/mL | Plasma CAB concentration ([2]; macaque 01D520, day 53): 5.88 µg/mL | Plasma CAB concentration ([2]; macaque 01D520, day 57): 4.57 µg/mL | Plasma CAB concentration ([2]; macaque 01D520, day 67): 0.943 µg/mL | Plasma CAB concentration ([2]; macaque 01D520, day 74): 6.2 µg/mL | Plasma CAB concentration ([2]; macaque 01D520, day 81): 4.17 µg/mL | Plasma CAB concentration ([2]; macaque 01D520, day 88): 2.42 µg/mL | Plasma CAB concentration ([2]; macaque 01D520, day 95): 0.992 µg/mL | Plasma CAB concentration ([2]; macaque 01D520, day 102): 0.432 µg/mL | Plasma CAB concentration ([2]; macaque 01D520, day 106): 0.273 µg/mL | Plasma CAB concentration ([2]; macaque 10D181, day 18): 3.2 µg/mL | Plasma CAB concentration ([2]; macaque 10D181, day 25): 3.88 µg/mL | Plasma CAB concentration ([2]; macaque 10D181, day 32): 2.79 µg/mL | Plasma CAB concentration ([2]; macaque 10D181, day 39): 1.33 µg/mL | Plasma CAB concentration ([2]; macaque 10D181, day 46): 3.45 µg/mL | Plasma CAB concentration ([2]; macaque 10D181, day 53): 5.06 µg/mL | Plasma CAB concentration ([2]; macaque 10D181, day 57): 3.47 µg/mL | Plasma CAB concentration ([2]; macaque 10D181, day 67): 1.51 µg/mL | Plasma CAB concentration ([2]; macaque 10D181, day 74): 2.76 µg/mL | Plasma CAB concentration ([2]; macaque 10D181, day 81): 3.57 µg/mL | Plasma CAB concentration ([2]; macaque 10D181, day 88): 2.78 µg/mL | Plasma CAB concentration ([2]; macaque 10D181, day 95): 1.5 µg/mL | Plasma CAB concentration ([2]; macaque 10D181, day 102): 0.454 µg/mL | Plasma CAB concentration ([2]; macaque 10D181, day 106): 0.227 µg/mL | Plasma CAB concentration ([2]; macaque 33996, day 18): 5.68 µg/mL | Plasma CAB concentration ([2]; macaque 33996, day 25): 6.38 µg/mL | Plasma CAB concentration ([2]; macaque 33996, day 32): 4.05 µg/mL | Plasma CAB concentration ([2]; macaque 33996, day 39): 3.3 µg/mL | Plasma CAB concentration ([2]; macaque 33996, day 46): 5.86 µg/mL | Plasma CAB concentration ([2]; macaque 33996, day 53): 9.39 µg/mL | Plasma CAB concentration ([2]; macaque 33996, day 57): 9.76 µg/mL | Plasma CAB concentration ([2]; macaque 33996, day 67): 1.4 µg/mL | Plasma CAB concentration ([2]; macaque 33996, day 74): 4.57 µg/mL | Plasma CAB concentration ([2]; macaque 33996, day 81): 6.04 µg/mL | Plasma CAB concentration ([2]; macaque 33996, day 88): 3.04 µg/mL | Plasma CAB concentration ([2]; macaque 33996, day 95): 1.43 µg/mL | Plasma CAB concentration ([2]; macaque 33996, day 102): 0.816 µg/mL | Plasma CAB concentration ([2]; macaque 33996, day 106): 0.611 µg/mL | Plasma CAB concentration ([2]; macaque 35451, day 18): 6.34 µg/mL | Plasma CAB concentration ([2]; macaque 35451, day 25): 4.47 µg/mL | Plasma CAB concentration ([2]; macaque 35451, day 32): 1.84 µg/mL | Plasma CAB concentration ([2]; macaque 35451, day 39): 0.819 µg/mL | Plasma CAB concentration ([2]; macaque 35451, day 46): 2.55 µg/mL | Plasma CAB concentration ([2]; macaque 35451, day 53): 4.01 µg/mL | Plasma CAB concentration ([2]; macaque 35451, day 57): 6.17 µg/mL | Plasma CAB concentration ([2]; macaque 35451, day 67): 3.19 µg/mL | Plasma CAB concentration ([2]; macaque 35451, day 74): 4.1 µg/mL | Plasma CAB concentration ([2]; macaque 35451, day 81): 2.89 µg/mL | Plasma CAB concentration ([2]; macaque 35451, day 88): 3.28 µg/mL | Plasma CAB concentration ([2]; macaque 35451, day 95): 2.43 µg/mL | Plasma CAB concentration ([2]; macaque 35451, day 102): 2.21 µg/mL | Plasma CAB concentration ([2]; macaque 35451, day 106): 1.25 µg/mL | Plasma CAB concentration ([2]; macaque CH54, day 18): 5.12 µg/mL | Plasma CAB concentration ([2]; macaque CH54, day 25): 5.14 µg/mL | Plasma CAB concentration ([2]; macaque CH54, day 32): 3.53 µg/mL | Plasma CAB concentration ([2]; macaque CH54, day 39): 1.14 µg/mL | Plasma CAB concentration ([2]; macaque CH54, day 46): 2.99 µg/mL | Plasma CAB concentration ([2]; macaque CH54, day 53): 2.32 µg/mL | Plasma CAB concentration ([2]; macaque CH54, day 57): 3.27 µg/mL | Plasma CAB concentration ([2]; macaque CH54, day 67): 4.33 µg/mL | Plasma CAB concentration ([2]; macaque CH54, day 74): 5.39 µg/mL | Plasma CAB concentration ([2]; macaque CH54, day 81): 5.03 µg/mL | Plasma CAB concentration ([2]; macaque CH54, day 88): 3.45 µg/mL | Plasma CAB concentration ([2]; macaque CH54, day 95): 1.97 µg/mL | Plasma CAB concentration ([2]; macaque CH54, day 102): 1.41 µg/mL | Plasma CAB concentration ([2]; macaque CH54, day 106): 0.707 µg/mL | Plasma CAB concentration ([2]; macaque CJ92, day 18): 6.99 µg/mL | Plasma CAB concentration ([2]; macaque CJ92, day 25): 3.55 µg/mL | Plasma CAB concentration ([2]; macaque CJ92, day 32): 3.13 µg/mL | Plasma CAB concentration ([2]; macaque CJ92, day 39): 2.92 µg/mL | Plasma CAB concentration ([2]; macaque CJ92, day 46): 3.62 µg/mL | Plasma CAB concentration ([2]; macaque CJ92, day 53): 2.88 µg/mL | Plasma CAB concentration ([2]; macaque CJ92, day 57): 3.47 µg/mL | Plasma CAB concentration ([2]; macaque CJ92, day 67): 3.7 µg/mL | Plasma CAB concentration ([2]; macaque CJ92, day 74): 5.46 µg/mL | Plasma CAB concentration ([2]; macaque CJ92, day 81): 6.56 µg/mL | Plasma CAB concentration ([2]; macaque CJ92, day 88): 4.022 µg/mL | Plasma CAB concentration ([2]; macaque CJ92, day 95): 1.93 µg/mL | Plasma CAB concentration ([2]; macaque CJ92, day 102): 1.54 µg/mL | Plasma CAB concentration ([2]; macaque CJ92, day 106): 0.994 µg/mL | Median CAB ([2]; day 18): 6.01 µg/mL | Median CAB ([2]; day 25): 4.805 µg/mL | Median CAB ([2]; day 32): 2.96 µg/mL | Median CAB ([2]; day 39): 1.235 µg/mL | Median CAB ([2]; day 46): 3.535 µg/mL | Median CAB ([2]; day 53): 4.535 µg/mL | Median CAB ([2]; day 57): 4.02 µg/mL | Median CAB ([2]; day 67): 2.35 µg/mL | Median CAB ([2]; day 74): 4.98 µg/mL | Median CAB ([2]; day 81): 4.6 µg/mL | Median CAB ([2]; day 88): 3.16 µg/mL | Median CAB ([2]; day 95): 1.715 µg/mL | Median CAB ([2]; day 102): 1.113 µg/mL | Median CAB ([2]; day 106): 0.659 µg/mL | CAB in plasma at the last measurement on day 204 ([2]; remaining two animals): detectable
